Laboratory results: patent US20220304305A1, “HIGHLY EFFECTIVE FORMULATIONS ON THE BASIS OF 2-[(2,4-DICHLORPHENYL)-METHYL]-4,4'-DIMETHYL-3-ISOXAZOLIDINONES AND PREEMERGENCE HERBICIDES” (Bayer Aktiengesellschaft, priority 2019, published 2022)

Assays:
[1] = test system: gramineous weeds in winter cereals; experiment: Greenhouse trials, activity against gramineous weeds (summary in words); type: in vivo; conditions: with both adjuvants from as low as 250 g/ha
Method: In the standard implementation of the test, seeds of various broad-leaved weed and weed grass biotypes (origins) were sown in an 8-13 cm diameter pot filled with natural soil of a standard field soil (loamy silt; non-sterile) and covered with a covering soil layer of about 1 cm. The pots were then cultivated in a greenhouse (light for 12-16 h, temperature 20-22° C. by day, 15-18° C. by night) until the time of application. The pots were treated on a laboratory track sprayer with spray liquors comprising the mixtures/compositions of the invention, mixtures of the prior art or the components applied individually. Application of the active ingredients or active ingredient combinations formulated as WG, WP, EC or otherwise was effected at the appropriate growth stages of the plants. The amount of water used for spray application was 100-600 l/ha. After the treatment, the plants were returned to the greenhouses.
About 3 weeks after the application, the soil action or/and foliar action was assessed visually according to a scale of 0-100% in comparison to an untreated comparative group: 0%=no noticeable effect compared to the untreated comparative group; 100%=full effect compared to the untreated comparative group. […]

[2] = list of substances and abbreviations used; cited from earlier work

Row | Compound | improvement [1] | log P [2]
1 | CC1(C)CON(Cc2ccc(Cl)cc2Cl)C1=O [DCPMI, 2-[(2,4-dichlorophenyl)methyl]-4,4′-dimethyl-3-isoxazolidinone] | significant improvement | abbreviated hereinafter to DCPMI), log P = 3.39
2 | CC(C)N(C(=O)COc1nnc(C(F)(F)F)s1)c1ccc(F)cc1 [flufenacet, 4′-fluoro-N-isopropyl-2-(5-trifluoromethyl-1,3,4-thiadiazol-2-yloxy)acetanilide] | – | (Bayer AG), abbreviated hereinafter to FFA, log P = 3.2
